Assay results as given in ChEMBL document CHEMBL1127515, “The [(methyloxy)imino]methyl moiety as a bioisoster of aryl. A novel class of completely aliphatic beta-adrenergic receptor antagonists” (J Med Chem, 1994).

How the values were obtained:
[1] = biological target: Beta-2 adrenergic receptor (Bos taurus, UniProt Q28044); assay: Binding affinity against beta-2-adrenergic receptor in bovine lung
[2] = biological target: Beta-2 adrenergic receptor (Cavia porcellus, UniProt Q8K4Z4); assay: Inhibitory concentration against beta-2-adrenergic receptor in isolated guinea pig tracheal strips
[3] = biological target: Beta-1 adrenergic receptor (Rattus norvegicus, UniProt P18090); assay: Binding affinity against beta-1-adrenergic receptor in rat brain; type: tissue-based
[4] = biological target: Beta-1 adrenergic receptor (Cavia porcellus, UniProt B0FL73); assay: Inhibitory concentration against beta-1-adrenergic receptor in isolated guinea pig atria
Chain of Beta-1 adrenergic receptor (Cavia porcellus, UniProt B0FL73) (B0FL73 whole entry): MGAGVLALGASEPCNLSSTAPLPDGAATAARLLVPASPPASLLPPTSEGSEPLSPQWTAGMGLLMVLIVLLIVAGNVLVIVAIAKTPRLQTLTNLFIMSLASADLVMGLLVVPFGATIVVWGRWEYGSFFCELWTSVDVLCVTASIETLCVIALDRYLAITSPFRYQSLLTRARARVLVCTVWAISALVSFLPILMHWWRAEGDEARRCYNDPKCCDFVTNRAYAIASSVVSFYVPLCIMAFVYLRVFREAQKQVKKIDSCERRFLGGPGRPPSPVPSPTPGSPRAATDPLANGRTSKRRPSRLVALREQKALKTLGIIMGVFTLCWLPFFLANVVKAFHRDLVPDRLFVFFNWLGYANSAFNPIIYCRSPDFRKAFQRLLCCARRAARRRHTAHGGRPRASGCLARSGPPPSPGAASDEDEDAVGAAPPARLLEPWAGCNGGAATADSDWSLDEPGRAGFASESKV

Chain of Beta-1 adrenergic receptor (Rattus norvegicus, UniProt P18090) (P18090 whole entry): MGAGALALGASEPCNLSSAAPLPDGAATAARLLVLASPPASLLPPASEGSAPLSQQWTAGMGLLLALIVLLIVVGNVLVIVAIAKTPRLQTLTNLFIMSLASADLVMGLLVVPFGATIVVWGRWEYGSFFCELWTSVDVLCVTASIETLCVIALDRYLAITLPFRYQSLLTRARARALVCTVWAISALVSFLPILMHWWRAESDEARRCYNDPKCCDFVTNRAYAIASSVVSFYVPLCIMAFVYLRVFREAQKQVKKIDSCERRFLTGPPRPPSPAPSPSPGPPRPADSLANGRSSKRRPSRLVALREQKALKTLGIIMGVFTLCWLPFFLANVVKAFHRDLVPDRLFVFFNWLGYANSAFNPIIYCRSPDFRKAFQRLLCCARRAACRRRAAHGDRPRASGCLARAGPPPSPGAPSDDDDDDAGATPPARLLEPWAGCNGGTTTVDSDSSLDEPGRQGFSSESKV
Chain of Beta-2 adrenergic receptor (Cavia porcellus, UniProt Q8K4Z4) (Q8K4Z4 whole entry): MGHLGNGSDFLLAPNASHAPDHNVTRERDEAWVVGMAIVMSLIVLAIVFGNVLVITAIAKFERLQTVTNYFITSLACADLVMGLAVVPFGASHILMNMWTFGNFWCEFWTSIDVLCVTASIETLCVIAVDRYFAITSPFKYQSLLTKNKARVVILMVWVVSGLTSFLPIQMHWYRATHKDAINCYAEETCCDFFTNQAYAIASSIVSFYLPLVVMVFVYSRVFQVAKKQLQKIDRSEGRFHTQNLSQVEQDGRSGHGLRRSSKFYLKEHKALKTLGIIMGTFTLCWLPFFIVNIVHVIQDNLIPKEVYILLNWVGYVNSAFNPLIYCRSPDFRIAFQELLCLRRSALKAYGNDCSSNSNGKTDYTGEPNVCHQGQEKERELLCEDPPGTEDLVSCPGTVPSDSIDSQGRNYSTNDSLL
Chain of Beta-2 adrenergic receptor (Bos taurus, UniProt Q28044) (Q28044 whole entry): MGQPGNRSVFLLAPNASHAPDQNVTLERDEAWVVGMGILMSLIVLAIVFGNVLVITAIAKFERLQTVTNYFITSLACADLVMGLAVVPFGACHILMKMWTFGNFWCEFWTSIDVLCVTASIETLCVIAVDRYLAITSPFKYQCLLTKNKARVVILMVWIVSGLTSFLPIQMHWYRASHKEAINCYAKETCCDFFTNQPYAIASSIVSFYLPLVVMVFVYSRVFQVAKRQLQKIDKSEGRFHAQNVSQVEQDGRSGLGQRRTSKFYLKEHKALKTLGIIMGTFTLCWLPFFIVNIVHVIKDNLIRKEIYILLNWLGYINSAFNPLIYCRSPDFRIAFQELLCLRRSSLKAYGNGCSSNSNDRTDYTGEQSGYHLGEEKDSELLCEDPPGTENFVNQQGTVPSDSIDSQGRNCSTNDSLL

| Structure (SMILES) | Ki [1] [nM] | IC50 [2] [nM] | Ki [3] [nM] | IC50 [4] [nM] |
| --- | --- | --- | --- | --- |
| CC/C=N/OCC(O)CNC(C)(C)C (centres undefined) | 1260 | 1550 | 500 | 26300 |
| CCO/N=C/C(O)CNC(C)C (centres undefined) | 3500 | 3310 | 1040 | 12300 |
| CCO/N=C/C(O)CNC(C)(C)C (centres undefined) | 1400 | 977 | 1080 | 13800 |
| C/C=N/OCC(O)CNC(C)(C)C (centres undefined) | 1980 | 4070 | 760 | 13500 |
| CCCO/N=C/C(O)CNC(C)C (centres undefined) | 5600 | 4370 | 1240 | 15500 |
| CC(C)NCC(O)c1ccc(Cl)c(Cl)c1 (centres undefined) [DICHLOROISOPROTERENOL] | 140 | 977 | 51 | 115 |
| CCCO/N=C/C(O)CNC(C)(C)C (centres undefined) | – | 269 | – | 8320 |
| C/C=N/OCC(O)CNC(C)C (centres undefined) | 7200 | 12900 | 1480 | 30200 |
| CC/C=N/OCC(O)CNC(C)C (centres undefined) | 4580 | 12000 | 2200 | 15500 |
